Data taken from patent US20210198277A1, “AMINE-SUBSTITUTED ARYL OR HETEROARYL COMPOUNDS” (Epizyme, Inc., priority 2016, published 2021).

target: T1, EHMT2 (Homo sapiens, UniProt Q96KQ7); test: MDA-MB-231 H3K9me2 in-cell Western assay (EHMT2 ICW); format: cell-based; conditions: Table II; MDA-MB-231 H3K9me2 in-cell Western; read-out: EHMT2 ICW (IC50 μM)
T1 construct: host or cells: MDA-MB-231
T1 sequence (Q96KQ7 1-1210): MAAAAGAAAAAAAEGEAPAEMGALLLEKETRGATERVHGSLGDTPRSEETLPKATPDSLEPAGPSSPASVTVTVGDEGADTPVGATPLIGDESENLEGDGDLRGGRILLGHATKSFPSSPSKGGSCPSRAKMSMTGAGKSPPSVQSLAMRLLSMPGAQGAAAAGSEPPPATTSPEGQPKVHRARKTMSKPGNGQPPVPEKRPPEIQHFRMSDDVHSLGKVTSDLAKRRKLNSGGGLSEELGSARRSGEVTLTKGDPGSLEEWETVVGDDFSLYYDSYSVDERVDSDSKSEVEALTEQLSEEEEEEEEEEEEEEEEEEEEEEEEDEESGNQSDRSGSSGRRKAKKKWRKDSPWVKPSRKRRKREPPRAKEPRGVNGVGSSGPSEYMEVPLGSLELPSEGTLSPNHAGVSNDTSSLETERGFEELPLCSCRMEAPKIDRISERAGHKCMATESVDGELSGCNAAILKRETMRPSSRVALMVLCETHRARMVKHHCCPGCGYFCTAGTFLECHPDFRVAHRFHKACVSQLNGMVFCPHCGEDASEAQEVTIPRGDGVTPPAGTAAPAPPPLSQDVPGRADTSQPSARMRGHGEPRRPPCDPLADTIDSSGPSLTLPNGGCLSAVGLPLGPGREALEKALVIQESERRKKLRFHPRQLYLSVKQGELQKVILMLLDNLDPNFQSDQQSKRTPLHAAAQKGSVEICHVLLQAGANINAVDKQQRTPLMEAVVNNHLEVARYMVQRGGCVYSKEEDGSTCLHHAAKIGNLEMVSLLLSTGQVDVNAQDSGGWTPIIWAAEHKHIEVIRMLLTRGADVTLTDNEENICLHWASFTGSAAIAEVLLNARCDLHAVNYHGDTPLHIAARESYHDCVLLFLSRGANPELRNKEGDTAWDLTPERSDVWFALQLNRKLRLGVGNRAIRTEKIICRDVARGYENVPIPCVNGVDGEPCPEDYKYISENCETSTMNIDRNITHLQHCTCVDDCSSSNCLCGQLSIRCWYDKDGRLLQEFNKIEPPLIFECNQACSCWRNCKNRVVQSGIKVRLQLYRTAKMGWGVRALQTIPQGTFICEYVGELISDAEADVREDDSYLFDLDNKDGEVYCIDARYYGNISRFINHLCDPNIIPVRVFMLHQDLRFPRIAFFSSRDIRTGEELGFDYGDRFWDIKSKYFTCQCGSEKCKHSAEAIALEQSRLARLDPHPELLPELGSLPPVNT
Outline: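 Cells seeded at 3,000/well onto pre-dispensed compound; 30 min RT, then 48 h 37 °C/5% CO2. PFA fix, block, α-H3K9me2 1:800 o/n 4 °C, 800CW secondary + DRAQ5. Odyssey scan 700/800 nm; ratio → % inhibition → 4-parameter IC50.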

SMILES | IC50
COc1ccc(Nc2nccc(NCC3CCNCC3)n2)cc1OCCCN1CCOCC1 [Compound 16, N^2-(4-methoxy-3-(3-morpholinopropoxy)phenyl)-N^4-(piperidin-4-ylmethyl)pyrimidine-2,4-diamine] | > 10 µM
COc1ccc(Nc2nccc(NCC3CCNCC3)n2)cc1CCNCC1CCCC1 [Compound 17, N^2-(3-(2-((cyclopentylmethyl)amino)ethyl)-4-methoxyphenyl)-N^4-(piperidin-4-ylmethyl)pyrimidine-2,4-diamine] | > 10 µM
COc1ccc(Nc2nccc(NCC3CCN(C(C)=O)CC3)n2)cc1OCC1CCN(C)C1 (stereo not shown) [Compound 18, 1-(4-(((2-((4-methoxy-3-((1-methylpyrrolidin-3-yl)methoxy)phenyl)amino)pyrimidin-4-yl)amino)methyl)piperidin-1-yl)ethan-1-one] | 1 to 10 µM
COc1ccc(Nc2nccc(NCCc3ccncc3)n2)cc1OCCCN1CCCC1 [Compound 39] | 0.1 to 1 µM
COc1ccc(Nc2nccc(NCCOc3ccccc3)n2)cc1OCCCN1CCCC1 [Compound 40] | 1 to 10 µM
CNC(=O)CNc1ccnc(Nc2ccc(OC)c(OCCCN3CCCC3)c2)n1 [Compound 41] | 1 to 10 µM
COc1ccc(Nc2nccc(NCC(C)(C)O)n2)cc1OCCCN1CCCC1 [Compound 42] | 1 to 10 µM
COc1ccc(Nc2nccc(NCCS(=O)(=O)N(C)C)n2)cc1OCCCN1CCCC1 [Compound 43] | 1 to 10 µM
COc1ccc(Nc2nccc(NCCCN(C)C(C)=O)n2)cc1OCCCN1CCCC1 [Compound 44] | 1 to 10 µM
COc1ccc(Nc2nccc(NCC3(O)CCCCC3)n2)cc1OCCCN1CCCC1 [Compound 45] | 1 to 10 µM
COc1ccc(Nc2nccc(NCc3cc[nH]n3)n2)cc1OCCCN1CCCC1 [Compound 46] | 1 to 10 µM
COc1ccc(Nc2nccc(NCC3CCN(C(C)=O)CC3)n2)cc1OCCCN1CCCC1 [Compound 47, 1-(4-(((2-((4-methoxy-3-(3-(pyrrolidin-1-yl)propoxy)phenyl)amino)pyrimidin-4-yl)amino)methyl)piperidin-1-yl)ethan-1-one] | 1 to 10 µM
COc1ccc(Nc2nccc(NCC3CCN(C(C)=O)CC3)n2)cc1COCCN1CCCC1 [Compound 48] | 1 to 10 µM
COc1ccc(Nc2nccc(NCC3(O)CCOCC3)n2)cc1OCCCN1CCCC1 [Compound 49] | 1 to 10 µM
COc1ccc(Nc2nccc(NC3CCCCC3)n2)cc1OCCCN1CCCC1 [Compound 50] | 1 to 10 µM
CNc1cc(Nc2ccc(OC)c(OCCCN3CCCC3)c2)ccn1 [Compound 206] | > 10 µM
CNc1ccnc(Nc2cccc(OCCCN3CCCC3)c2)n1 [Compound 207, N^4-methyl-N^2-(3-(3-(pyrrolidin-1-yl)propoxy)phenyl)pyrimidine-2,4-diamine] | 1 to 10 µM
CNc1nc(C)cc(Nc2ccc(OC)c(OCCCN3CCCC3)c2)n1 [Compound 208] | 1 to 10 µM
CNc1ccnc(Nc2ccc(OC)c(OCCCN3CCCC3)c2)c1 [Compound 209, N^2-(4-methoxy-3-(3-(pyrrolidin-1-yl)propoxy)phenyl)-N^4-methylpyridine-2,4-diamine] | 1 to 10 µM
CNc1ccnc(Nc2ccc(OC)c(OCCCN3CCOCC3)c2)n1 [Compound 210] | 1 to 10 µM

SMILES | IC50
COc1ccc(Nc2nccc(-n3nc(C)cc3C)n2)cc1OCCCN1CCCC1 [Compound 214] | > 10 µM
CNCc1cnc(Nc2ccc(OC)c(OCCCN3CCCC3)c2)nc1 [Compound 215] | > 10 µM
COc1ccc(Nc2ccnc(NCC3CCN(C(C)=O)CC3)n2)cc1OCCCN1CCCC1 [Compound 216] | > 10 µM
COc1ccc(Nc2ccc3cnn(C)c3c2)cc1OCCCN1CCCC1 [Compound 217] | > 10 µM
COc1ccc(Nc2ccc3ncn(C)c3n2)cc1OCCCN1CCCC1 [Compound 218] | > 10 µM
COc1ccc(Nc2ncc3ncn(C)c3n2)cc1OCCCN1CCCC1 [Compound 219] | > 10 µM
COc1ccc(Nc2cccc3ncnn23)cc1OCCCN1CCCC1 [Compound 220] | > 10 µM
COc1ccc(Nc2ccc3nn(C)cc3c2)cc1OCCCN1CCCC1 [Compound 221] | > 10 µM
COc1ccc(Nc2cccc3cn(C)nc23)cc1OCCCN1CCCC1 [Compound 222] | > 10 µM
COc1ccc(Nc2ccc3ncc(C)n3n2)cc1OCCCN1CCCC1 [Compound 223] | > 10 µM
COc1ccc(Nc2nccc(-c3cnn(C)c3)n2)cc1OCCCN1CCCC1 [Compound 224] | > 10 µM
COc1ccc(Nc2nccc(Nc3cccc(F)c3)n2)cc1OCCCN1CCCC1 [Compound 225] | 1 to 10 µM
COc1ccc(Nc2nccc(NCC3CCOCC3)n2)cc1NCCCN1CCCC1 [Compound 226] | 1 to 10 µM
COc1ccc(OCCCN2CCCC2)cc1Nc1nccc(NCC2CCOCC2)n1 [Compound 227] | > 10 µM
COc1ccc(NCCCN2CCCC2)cc1Nc1nccc(NCC2CCOCC2)n1 [Compound 228] | > 10 µM
CNc1ccnc(Nc2ccc(OC)c(OCCCN3CC[C@@H](F)C3)c2)n1 [Compound 229] | 1 to 10 µM
CNc1ccnc(Nc2ccc(OC)c(OCCCN3CC(F)C3)c2)n1 [Compound 230] | 1 to 10 µM
CNc1nccc(Nc2ccc(OC)c(OCCCN3CCCC3)c2)n1 [Compound 231] | 0.1 to 1 µM
CNc1cc(C)nc(Nc2ccc(F)c(OCCCN3CCCC3)c2)n1 [Compound 232] | > 10 µM
CNc1nc(Nc2ccc(OC)c(OCCCN3CCCC3)c2)ncc1C#N [Compound 233] | > 10 µM

Second part, the molecule after the results:

IC50 | SMILES
0.1 to 1 µM | COc1ccc(Nc2nc(C)cc(NCC3CCN(C(C)=O)CC3)n2)cc1OCCCN1CCCC1 [Compound 19, 1-(4-(((2-((4-methoxy-3-(3-(pyrrolidin-1-yl)propoxy)phenyl)amino)-6-methylpyrimidin-4-yl)amino)methyl)piperidin-1-yl)ethan-1-one]
0.1 to 1 µM | COc1ccc(Nc2nccc(NC(C)C)n2)cc1OCCCN1CCCC1 [Compound 20]
0.1 to 1 µM | COc1ccc(Nc2nccc(NCc3ccccc3)n2)cc1OCCCN1CCCC1 [Compound 21]
0.1 to 1 µM | COCCCNc1ccnc(Nc2ccc(OC)c(OCCCN3CCCC3)c2)n1 [Compound 22]
0.1 to 1 µM | COc1ccc(Nc2nccc(NCc3ccccn3)n2)cc1OCCCN1CCCC1 [Compound 23]
0.1 to 1 µM | COc1ccc(Nc2nccc(NCc3ccncc3)n2)cc1OCCCN1CCCC1 [Compound 24]
0.1 to 1 µM | COc1ccc(Nc2nccc(NCc3cccnc3)n2)cc1OCCCN1CCCC1 [Compound 25]
0.1 to 1 µM | COc1cccc(CNc2ccnc(Nc3ccc(OC)c(OCCCN4CCCC4)c3)n2)c1 [Compound 26]
0.1 to 1 µM | COCCNc1ccnc(Nc2ccc(OC)c(OCCCN3CCCC3)c2)n1 [Compound 27]
0.1 to 1 µM | COc1ccc(CNc2ccnc(Nc3ccc(OC)c(OCCCN4CCCC4)c3)n2)cc1 [Compound 28]
0.1 to 1 µM | COc1ccc(Nc2nccc(NCC3CCN(C(C)C)CC3)n2)cc1OCCCN1CCCC1 [Compound 29]
0.1 to 1 µM | COc1ccc(Nc2nccc(NCc3cnn(C)c3)n2)cc1OCCCN1CCCC1 [Compound 30]
0.1 to 1 µM | COc1ccc(Nc2nccc(NCc3nc4ccccc4[nH]3)n2)cc1OCCCN1CCCC1 [Compound 31]
0.1 to 1 µM | COc1ccc(Nc2nccc(NCC3CCN(C)CC3)n2)cc1OCCCN1CCCC1 [Compound 32]
0.1 to 1 µM | COc1ccc(Nc2nccc(NCC3CCN(c4ccccc4)CC3)n2)cc1OCCCN1CCCC1 [Compound 33]
0.1 to 1 µM | COc1ccc(Nc2nccc(NCC3CCCC3)n2)cc1OCCCN1CCCC1 [Compound 34]
0.1 to 1 µM | COc1ccc(Nc2cccc(NC3CCC3)n2)cc1OCCCN1CCCC1 [Compound 35]
0.1 to 1 µM | COc1ccccc1CNc1ccnc(Nc2ccc(OC)c(OCCCN3CCCC3)c2)n1 [Compound 36]
0.1 to 1 µM | COc1ccc(Nc2nccc(NCCc3cccnc3)n2)cc1OCCCN1CCCC1 [Compound 37]
0.1 to 1 µM | COc1ccc(Nc2nccc(NCCNC(C)=O)n2)cc1OCCCN1CCCC1 [Compound 38]
< 0.1 µM | CNc1cc(C)nc(Nc2ccc(OC)c(OCCCN3CCCC3)c2)n1 [Compound 205, N^2-(4-methoxy-3-(3-(pyrrolidin-1-yl)propoxy)phenyl)-N^4,6-dimethylpyrimidine-2,4-diamine]
